Experiments:
human ENPP2 = human ENPP2 (Homo sapiens, UniProt Q13822); test: In vitro bis-pNPP assay (ATX inhibitory activity); format: biochemical; conditions: for IC50: in vitro bis-pNPP assay, human ENPP2
Procedure: We confirmed the ATX inhibitory activity of each compound using bis-pNPP assay. First, 50 μL of 60 mM Tris-HCl (pH 9.0) solution was poured into a 96-well plate and 10 μL of the test compound solution (10% dimethyl sulfoxide) was added. Subsequently, 20 μL of a 3.75 nM human ENPP2 solution (buffer: 50 mM Tris-HCl (pH 8.5), 5 mM CaCl2, 2.5 mM MgCl2, 0.002% Brij 35) and 20 μL of 25 mM bis-pNPP solution (buffer: 50 mM Tris-HCl (pH 9.0)) were added and mixed. Spectrophotometric measurement was carried out at 405 nm at intervals of 10 s while reacting under 37 °C for 10 min.

ATX = target: T1, ATX (Homo sapiens, UniProt Q13822); test: Ex vivo human plasma assay (LPC to LPA, LC-MS/MS); format: biochemical; conditions: 37 °C, 3 h
T1 construct: from tissue; host or cells: human plasma / serum
Procedure: First, 5 μL of each test compound solution (10 mM, 100% dimethyl sulfoxide) was diluted 100 times with 495 μL of methanol and then 3 μL of a diluted methanol solution (1% dimethyl sulfoxide) was added to a human or rat serum solution. Next, 12 μL of the test compound solution was mixed into 48 μL of 100% serum in order to make 5 concentrations, and each tube was placed in a constant temperature water bath at 37 °C for 15 min. Subsequently, 10 mg/mL 18: 1 LPC solution (50% ethanol) was diluted to 375 μg/mL with serum and 2 μL was dispensed into each tube to make 50 μL. Each tube was reacted in a constant temperature water bath at 37 °C for 3 h. Then, 100 μL of a 0.5 μM 17:0 LPA solution (Chloroform/Methanol/Water = 65/35/8) was added to the reaction tube. Reaction mixture was centrifuged at 14,000 rpm, at 4 °C for 10 min in a centrifuge. Thereafter, 100 μL of 50% methanol solution was first dissolved in a 96-well polypropylene plate (Agilent Technologies 5042-1385, Santa Clara, CA, USA), and then 50 μL of the supernatant was carefully transferred from the centrifuged tube to the plate. Then, it was covered with a well cap (Thermo 276011, Thermo Fisher Scientific Solutions LLC, Seoul, Korea) and analyzed by LC-MS/MS (Agilent 1260).

| IC50 (human ENPP2) [nM] | potency relative to compound 1 in the bis-pNPP assay (human ENPP2; ratio of bis-pNPP IC50 values, compound 2 vs compound 1) | IC50 (ATX) [nM] | Structure (SMILES) |
| --- | --- | --- | --- |
| 44.5 | five-fold more potent |  | NS(=O)(=O)Nc1ccc(C(=O)NC2CCN(C(=O)OCc3cc(Cl)cc(Cl)c3)CC2)cc1 [Compound 2, (3,5-dichlorophenyl)methyl 4-[4-(sulfamoylamino)benzamido]piperidine-1-carboxylate] |
| 3.86 |  | 827 | NS(=O)(=O)Nc1ccc(NC(=O)c2ccc3c(c2)CN(C(=O)OCc2cc(Cl)cc(Cl)c2)C3)cc1 [Compound 3, (3,5-dichlorophenyl)methyl 5-{[4-(sulfamoylamino)phenyl]carbamoyl}-2,3-dihydro-1H-isoindole-2-carboxylate] |
| 12.7 |  |  | NS(=O)(=O)Nc1ccc(C(=O)Nc2ccc3c(c2)CN(C(=O)OCc2cc(Cl)cc(Cl)c2)C3)cc1 [Compound 4, (3,5-dichlorophenyl)methyl 5-[4-(sulfamoylamino)benzamido]-2,3-dihydro-1H-isoindole-2-carboxylate] |

— article PMC6696049, “Pharmacophoric Site Identification and Inhibitor Design for Autotaxin” (Molecules, 2019)
